The text below walks through data of patent publication US12636366B2, “Ruthenium (II) complexes and conjugates thereof for use as photosensitizer agent in photodynamic therapy” (Paris Sciences et Lettres, priority 2019, dated 2026).

Where two headings read alike, the source gives them in different places.

The nature of data set [1]: Singlet oxygen measurement, direct evaluation (1O2 luminescence at 1270 nm). The format is physicochemical. The settings on record: direct method, excitation at 450 nm; for Singlet oxygen quantum yield Φ(1O2), CH3CN Direct / Singlet oxygen quantum yield Φ(1O2), D2O Direct: average of three, +-10%. As to the method: The samples were prepared in an air saturated CH3CN or D2O solution with an absorbance of 0.2 at 450 nm. This solution was irradiated in fluorescence quartz cuvettes (width 1 cm) using a mounted M450LP1 LED (Thorlabs) whose irradiation, centered at 450 nm, has been focused with aspheric condenser lenses. The intensity of the irradiation has been varied using a T-Cube LED Driver (Thorlabs) and measured with an optical power and energy meter. The emission signal was focused and collected at right angle to the excitation pathway and directed to a Princeton Instruments Acton SP-2300i monochromator equipped with 600 g/mm grating blazed at 1200 nm. A longpass glass filter was placed in front of the monochromator entrance slit to cut off light at wavelengths shorter than 850 nm. The slits for detection were fully open. As a detector an EO-817L IR-sensitive liquid nitrogen cooled germanium diode detector (North Coast Scientific Corp.) has been used. The singlet oxygen luminesce at 1270 nm was measured by recording spectra from 1100 to 1400 nm. For the data analysis, the singlet oxygen luminescence peaks at different irradiation intensities were integrated. The resulting areas were plotted against the percentage of the irradiation intensity and the slope of the linear regression calculated. The absorbance of the sample was corrected with an absorbance correction factor. As reference for the measurement in an CH3CN solution phenalenone (Φphenaleone=0.95)^33 and for the measurement in a D2O solution [Ru(bipy)3]Cl2 (ΦRu(bipy)3C12=0.22)^31 was used and the singlet oxygen quantum yields were calculated using the following formula: […]
Additionally, the DFT calculations were able to characterize the lowest energy absorption band as a MLCT transition with a triplet state. With this in hand, a quantitative evaluation of singlet oxygen (^1O2) was performed to assess the potential of the PSs in PDT, by two methods: 1) direct by measurement of the luminescence of ^1O2, 2) indirect by measurement of the variation in absorbance of a reporter molecule, as described above. In the first method, the efficiency of the production of ^1O2 was assessed by measuring its phosphorescence at 1270 nm. Worthy of note, the possibility of detection in this experiment is affected by its environment as well as the used setup. With the setup used in this study, we could only detect Φ(^1O2) larger than 0.20 based on a low peak-to-noise ratio. In the second method (indirect method), ^1O2 is reacting with imidazole (in CH3CN) and histidine (in PBS buffer) to a trans-annular peroxide adduct. This can further quench the absorbance of the reporter molecule p-nitrosodimethyl aniline (RNO), which has been monitored by UV/VIS spectroscopy. In both methods, the ^1O2 production has been compared with a reference molecule, namely a solution of phenalenone in CH3CN (Φ(^1O2)phenaleone=0.95)^33 and a solution of [Ru(bipy)3]Cl2 in water Φ(^1O2)Ru(bipy)3Cl2=0.22)^31. […] In comparison, the values changed drastically in an aqueous solution. […] They have untypically low Φ(^1O2) values in CH3CN (0.22-0.35) for Ru(II) polypyridyl complexes. Subsequently, the ^1O2 production was also quite low in an aqueous environment.

Data set [2] relates to human glioblastoma cells (U373). The data set can be described thus: Dark and light cytotoxicity, resazurin cell viability assay, U373. The settings on record: for PI (IC50 in the dark/IC50 upon light irradiation): U373, 480 nm. It is filed as cell-based. On the procedure: (§1) HeLa and CT-26 cell lines were cultured in DMEM media (Gibco, Life Technologies, USA) supplemented with 10% of fetal calf serum (Gibco). U87 and U373 cell lines were cultured in MEM media with addition of 1% of MEM NEAA (non-essential aminoacids) (Gibco) and 10% of fetal calf serum. RPE-1 cells were cultured in DMEM/F-12 (Gibco) supplemented with 10% of fetal calf serum. RPE-1 stable cells lines were cultured as RPE-1 cells with addition of geneticin (0.5 mg/ml) (Gibco). All cell lines were complemented with 100 U/ml penicillin-streptomycin mixture (Gibco), and maintained in humidified atmosphere at 37° C. and 5% of CO2.
(§2) Dark and light cytotoxicity of the Ru(II) complexes was assessed by fluorometric cell viability assay using resazurin (ACROS Organics). For dark and light cytotoxicity, cells were seeded in triplicates in 96 well plates at a density of 4000 cells per well in 100 μl, 24 h prior to treatment. The medium was then replaced with increasing concentration of the tested complexes and cells were incubated for 4 h. Medium was then replaced for fresh complete medium. Cells used for light cytotoxicity experiment were exposed to: 480 nm light for 10 min, 510 nm for 40 min, 540 for 60 min or 595 nm for 120 min in a 96-well plate using a LUMOS-BIO photoreactor (Atlas Photonics). Each well was individually illuminated with a LED at constant current. After irradiation cells were kept for another 44 h in the incubator and the medium was replaced by fresh complete medium containing resazurin (0.2 mg ml^−1 final concentration). After 4 h incubation at 37° C., the fluorescence signal of the resorufin product was read by SpectraMax M5 microplate reader (ex: 540 nm em: 590 nm). IC50 values were calculated using GraphPad Prism software.
(§3) The potential of the complexes to act as PDT PSs was determined on mouse colon carcinoma cells (CT-26), human glioblastoma cells (U87 and U373), human cervical carcinoma cells (HeLa) as well as non-cancerous retina pigmented epithelial cell line (RPE-1) according to the method described above. […] Ideally, a PDT PS should be non-toxic in the dark and highly toxic upon light activation. […] The toxicity of the compounds upon light irradiation (480 nm, 10 min, 3.21 J cm^−2) was then investigated.
Background: Resazurin is reduced to fluorescent resorufin, in cell work by metabolically active cells.

The subject of data set [3] is CT-26 mouse colon carcinoma cells. Nature of the data set: Dark and light cytotoxicity, resazurin cell viability assay, CT-26. The format is cell-based. The note with it: for PI (IC50 in the dark/IC50 upon light irradiation): CT-26, 480 nm. As to the method:
as §1, §2, §3

Data set [4] in a line: Emission of the complexes in CH3CN upon excitation at 355 nm. It is filed as physicochemical. The settings on record: room temperature. As to the method: The absorption of the samples in cuvettes has been measured with a Lambda 800 UV/VIS Spectrometer (PerkinElmer Instruments) and in 96 well plates with a SpectraMax M2 Spectrometer (Molecular Devices). The emission was measured by irradiation of the sample in fluorescence quartz cuvettes (width 1 cm) using a NT342B Nd-YAG pumped optical parametric oscillator (Ekspla) at 355 nm. Luminescence was focused and collected at right angle to the excitation pathway and directed to a Princeton Instruments Acton SP-2300i monochromator equipped with 1200 g/mm grating blazed at 500 nm. As a detector a XPI-Max 4 CCD camera (Princeton Instruments) has been used.
Upon excitation at 355 nm, the emission of the complexes in CH3CN was determined. The maximum of the emission signal was measured between 600-710 nm (Table 1). […] This leads for all investigated complexes to a large Stokes shift implying minimal inference between excitation and luminescence.

[5] abbreviates: U373, dark, read-out: IC50 Dark.
Setting [6] is: U373, light 480 nm, 10 min, 3.21 J cm^−2, read-out: IC50 Light.
[7] abbreviates: CT-26, dark, 4 h incubation, read-out: IC50 Dark.
Setting [8] is: CT-26, light 480 nm, 10 min, 3.21 J cm^−2, read-out: IC50 Light.

Take `F[P-](F)(F)(F)(F)F.F[P-](F)(F)(F)(F)F.[Ru+2].c1ccc(-c2ccccn2)nc1.c1cnc2c(c1)ccc1cccnc12.c1cnc2c(c1)ccc1cccnc12` [Compound 1, (Bipyridine)bis(1,10-phenanthroline)ruthenium(II)hexafluorophosphate]: the “Singlet oxygen quantum yield Φ(1O2), CH3CN Direct” value in data set [1] is 0.57. The “Singlet oxygen quantum yield Φ(1O2), D2O Direct” value in data set [1] came to 0.27. Further, the IC50 in data set [2] (setting [5]), in data set [2] (setting [6]), in data set [3] (setting [7]) and in data set [3] (setting [8]) was > 100 µM throughout. In addition, in data set [4], the “Emission λem” value is on record as 600 nm.

On to “(2,2′-bipyridine-4,4′-carboxamide)bis(1,10-phenanthroline)ruthenium(II) hexafluorophosphate [Compound 4]”, for which the “Singlet oxygen quantum yield Φ(1O2), CH3CN Direct” value in data set [1] amounted to 0.62. In data set [1], the “Singlet oxygen quantum yield Φ(1O2), D2O Direct” value stood at 0.25. The IC50 was > 100 µM in data set [2] (setting [5]), > 100 µM in data set [2] (setting [6]), > 100 µM in data set [3] (setting [7]) and 72.6 ± 7.44 µM in data set [3] (setting [8]). The “PI (IC50 in the dark/IC50 upon light irradiation)” value in data set [3] (10 min) is >1. Moreover, the “Emission λem” value in data set [4] is given as 654 nm.

In the case of “((E,E′)-4,4′-Bis(N,N′-dimethylaminovinyl)-2,2′-bipyridine)bis(1,10-phenanthroline)ruthenium(II) hexafluorophosphate [Compound 5]”, the “Singlet oxygen quantum yield Φ(1O2), CH3CN Direct” value in data set [1] is given as 0.24. Moreover, the “Singlet oxygen quantum yield Φ(1O2), D2O Direct (not determinable)” value in data set [1] is on record as “n.d. (n.d. = not determinable, Φ(^1O2) < 0.20)”. Besides, the IC50 in data set [2] (setting [5]) is > 100 µM; in data set [2] (setting [6]) it was > 100 µM; in data set [3] (setting [7]) it was > 100 µM; in data set [3] (setting [8]), 52.5 ± 6.04 µM. In data set [3] (10 min), the “PI (IC50 in the dark/IC50 upon light irradiation)” value is >2. For the same compound, the “Emission λem” value in data set [4] came out at 703 nm.

Consider “(4,4′-Dimethyl-2,2′-bipyridine)bis(4,7-diphenyl-1,10-phenanthroline)ruthenium(II) hexafluorophosphate [Compound 6]”, for which the “Singlet oxygen quantum yield Φ(1O2), CH3CN Direct” value in data set [1] is given as 0.61. Besides, the “Singlet oxygen quantum yield Φ(1O2), D2O Direct (not determinable)” value in data set [1] is given as “n.d. (n.d. = not determinable, Φ(^1O2) < 0.20)”. In addition, the “Singlet oxygen quantum yield Φ(1O2), D2O Direct” value in data set [1] was “not detectable”. Further, the “PI (IC50 in the dark/IC50 upon light irradiation)” value in data set [2] (10 min) came to 12.37; in data set [3] (10 min), 16.3. Besides, the IC50 in data set [2] (setting [5]) came to 23.4 ± 0.53 µM; in data set [2] (setting [6]), 1.89 ± 0.07 µM; in data set [3] (CT-26, dark control of the 510 nm 40 min experiment, read-out: IC50 Dark), 4.18 ± 0.56 µM; in data set [3] (CT-26, dark control of the 540 nm 60 min experiment, read-out: IC50 Dark) it was 3.27 ± 0.64 µM; in data set [3] (CT-26, dark control of the 595 nm 2 h experiment, 2 h at 37° C. in non-CO2 atmosphere, read-out: IC50 Dark) it was 1.408 ± 0.003 µM; in data set [3] (setting [7]), 3.09 ± 0.3 µM. Also, the IC50 in data set [3] (setting [8]) was 0.19 ± 0.04 µM; in data set [3] (CT-26, light 540 nm 60 min, read-out: IC50 Light), 0.34 ± 0.005 µM; in data set [3] (CT-26, light 595 nm 2 h, no CO2 atmosphere during irradiation, read-out: IC50 Light), 0.06 ± 0.004 µM. Further, the PI in data set [3] (CT-26, 510 nm 40 min) is reported as 20.6; in data set [3] (CT-26, 540 nm 60 min) it was 9.6; in data set [3] (CT-26, 595 nm 2 h), 23.47. Besides, the “Emission λem” value in data set [4] came to 623 nm.

Take “(4,4′-Dibromo-2,2′-bipyridine)bis(1,10-phenanthroline)ruthenium(II) hexafluorophosphate [Compound 3]”: the “Singlet oxygen quantum yield Φ(1O2), CH3CN Direct” value in data set [1] was 0.55. Besides, the “Singlet oxygen quantum yield Φ(1O2), D2O Direct (not determinable)” value in data set [1] is “n.d. (n.d. = not determinable, Φ(^1O2) < 0.20)”. For the same compound, in data set [1], the “Singlet oxygen quantum yield Φ(1O2), D2O Direct” value was “not detectable”. Further, the IC50 in data set [2] (setting [5]) is > 100 µM; in data set [2] (setting [6]), > 100 µM; in data set [3] (setting [7]), > 100 µM; in data set [3] (setting [8]), 85.7 ± 9.47 µM. In data set [3] (10 min), the “PI (IC50 in the dark/IC50 upon light irradiation)” value was >1. In data set [4], the “Emission λem” value is listed as 645 nm.

On to `Cc1ccnc(-c2cc(C)ccn2)c1.F[P-](F)(F)(F)(F)F.F[P-](F)(F)(F)(F)F.[Ru].c1cnc2c(c1)ccc1cccnc12.c1cnc2c(c1)ccc1cccnc12` [Compound 2, (4,4′-Dimethyl-2,2′-bipyridine)bis(1,10-phenanthroline)ruthenium(II)hexafluorophosphate], for which the “Singlet oxygen quantum yield Φ(1O2), CH3CN Direct” value in data set [1] is 0.69. Further, in data set [1], the “Singlet oxygen quantum yield Φ(1O2), D2O Direct” value amounted to 0.31. In addition, the IC50 in data set [2] (setting [5]) is > 100 µM; in data set [2] (setting [6]) it was > 100 µM; in data set [3] (setting [7]) it was > 100 µM; in data set [3] (setting [8]), 91.2 ± 7.54 µM. Moreover, in data set [3] (10 min), the “PI (IC50 in the dark/IC50 upon light irradiation)” value was >1. Also, in data set [4], the “Emission λem” value worked out at 606 nm.

On to “((E,E′)-4,4′-Bis(N,N′-dimethylaminovinyl)-2,2′-bipyridine)bis(4,7-diphenyl-1,10-phenanthroline)ruthenium(II) hexafluorophosphate [Compound 7]”, for which the “Singlet oxygen quantum yield Φ(1O2), CH3CN Direct” value in data set [1] was 0.22. The “Singlet oxygen quantum yield Φ(1O2), D2O Direct (not determinable)” value in data set [1] is reported as “n.d. (n.d. = not determinable, Φ(^1O2) < 0.20)”. In addition, the “PI (IC50 in the dark/IC50 upon light irradiation)” value in data set [2] (10 min) is >6.7; in data set [3] (10 min) it was 14.3. The IC50 was > 100 µM in data set [2] (setting [5]), 14.8 ± 0.81 µM in data set [2] (setting [6]), 94.5 ± 7.38 µM in data set [3] (setting [7]) and 6.62 ± 0.7 µM in data set [3] (setting [8]). Besides, the “Emission λem” value in data set [4] stood at 694 nm.

Broadly, the IC50 is the point on the concentration scale where inhibition reaches its midpoint.
